Read-outs that look alike come from different tables or passages of the source. Marks after values point to notes of the source that are not given here.
Experiments:
[1] = Pharmacokinetics after single oral dosing, plasma and brain by LC-MS/MS; type: in vivo, rats; conditions: male, SD, rat, 30 mg/kg
SNL rats = conditions: previously reported; cited from earlier work
[2] = human; cited from earlier work
[3] = dog; cited from earlier work
SNL mice = assay: Anti-allodynia test in SNL; conditions: 30 mg/kg oral gavage
PSL rats = assay: Anti-allodynia test in PSL; type: in vivo; conditions: 30 mg/kg oral
[4] = molecular target: gabapentin-binding site (presumably α2-δ subunit proteins) (Rattus norvegicus, UniProt P54290); assay: [3H]gabapentin-binding assay, rat cerebral cortex membranes
Chain of gabapentin-binding site (presumably α2-δ subunit proteins) (P54290 25-1091): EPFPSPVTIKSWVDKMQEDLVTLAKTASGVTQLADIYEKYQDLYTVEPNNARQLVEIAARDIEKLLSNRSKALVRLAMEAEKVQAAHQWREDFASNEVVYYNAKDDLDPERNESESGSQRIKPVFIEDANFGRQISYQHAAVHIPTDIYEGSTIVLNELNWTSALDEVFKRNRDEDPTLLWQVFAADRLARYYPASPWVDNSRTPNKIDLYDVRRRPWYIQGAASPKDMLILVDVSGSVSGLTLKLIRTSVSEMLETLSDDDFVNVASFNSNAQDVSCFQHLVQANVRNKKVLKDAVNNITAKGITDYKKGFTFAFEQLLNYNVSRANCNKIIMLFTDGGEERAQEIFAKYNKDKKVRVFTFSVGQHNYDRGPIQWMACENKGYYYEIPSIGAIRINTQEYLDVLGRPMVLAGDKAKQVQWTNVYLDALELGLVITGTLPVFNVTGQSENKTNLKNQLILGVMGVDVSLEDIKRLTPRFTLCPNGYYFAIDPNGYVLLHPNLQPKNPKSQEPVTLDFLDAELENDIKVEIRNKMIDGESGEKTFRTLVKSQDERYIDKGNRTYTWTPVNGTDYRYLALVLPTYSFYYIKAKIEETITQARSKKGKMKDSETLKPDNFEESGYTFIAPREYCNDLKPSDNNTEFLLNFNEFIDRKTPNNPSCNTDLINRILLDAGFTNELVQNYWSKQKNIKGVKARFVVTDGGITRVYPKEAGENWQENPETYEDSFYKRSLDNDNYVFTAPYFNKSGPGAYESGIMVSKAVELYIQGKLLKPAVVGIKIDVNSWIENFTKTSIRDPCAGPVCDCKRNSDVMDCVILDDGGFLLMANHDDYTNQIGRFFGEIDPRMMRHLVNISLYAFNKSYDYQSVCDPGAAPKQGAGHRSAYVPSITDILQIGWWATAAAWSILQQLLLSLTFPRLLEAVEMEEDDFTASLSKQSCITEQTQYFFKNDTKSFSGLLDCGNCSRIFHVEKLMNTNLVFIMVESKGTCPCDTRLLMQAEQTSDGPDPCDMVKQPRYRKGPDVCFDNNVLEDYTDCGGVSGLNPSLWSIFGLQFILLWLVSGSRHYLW

[5] = test system: neuromuscular coordination in rats; assay: Rotarod test; conditions: for duration (s) 1 h / duration (s) 2 h / duration (s) 3 h: mean (SEM), max 180 s

SMILES: CC(C)CC(CN)CC(=O)O (centres unmarked) [pregabalin, 3-isobutyl-γ-aminobutyric acid]
- concentration at 1 h ([1]; brain): 12.4 µM
- concentration at 1 h ([1]; plasma): 109 µM
- effect on pain thresholds on both sides of SNL rats (SNL rats): bilateral hypalgesic activity
- plasma half-life (T1/2) [2]: around 6 h
- plasma half-life (T1/2) [3]: around 6 h
- antiallodynic activity (pain thresholds, paw withdrawal to von Frey filaments) (SNL mice; SNL mice): significant antiallodynic activity
- pain thresholds in sham mice (hypalgesic effect) (SNL mice; sham mice): significantly increased the pain thresholds in sham mice at the late time point of 180 min
- analgesic effects (PSL rats; PSL (Seltzer) rats): significant analgesic effects
- time at which efficacy on the ipsilateral side peaked (PSL rats; PSL rats): 180 min
- time up to which efficacy on the ipsilateral side was sustained (PSL rats; PSL rats): 300 min
- hypalgesic effect on the contralateral side (PSL rats; PSL rats, 180 min after administration): remarkable hypalgesic effect
- RBA (%) ([4]; IC50 of pregabalin divided by IC50 of test compound): 100%
- inhibition at 0.39 µM ([4]; read-out: % inhibition (at μM)): 79%
- duration (s) 1 h ([5]; 10 mg/kg oral): 180 (0.0) s
- duration (s) 2 h ([5]; 10 mg/kg oral): 160 (19.8) s
- duration (s) 3 h ([5]; 10 mg/kg oral, 10 mg/kg): significantly shortened
- duration (s) 1 h ([5]; 30 mg/kg oral): 180 (0.0) s
- duration (s) 2 h ([5]; 30 mg/kg oral): 93 (24.4)^## s
- duration (s) 3 h ([5]; 30 mg/kg oral): 12 (3.7)^## s
- duration (s) 1 h ([5]; 100 mg/kg oral): 53 (11.5)^# s
- duration (s) 2 h ([5]; 100 mg/kg oral): 13 (6.3)^## s
- duration (s) 3 h ([5]; 100 mg/kg oral): 6 (2.1)^## s
- effect on neuromuscular coordination (duration on the rotating rods) ([5]; oral, over the doses tested): significantly and dose-dependently reduced the duration

Reference: article PMC4102965 (ACS Chemical Neuroscience, 2014)
